The source of these data is PMC11005040, “Photoactivatable Ruthenium Complexes Containing Minimal Straining Benzothiazolyl-1,2,3-triazole Chelators for Cancer Treatment” (Inorganic Chemistry, 2024).

In series [1] the test system is HeLa cells. Also on record: method as in doi:10.1016/j.dyepig.2022.110905. As to conditions: λexc 405 nm; cited from earlier work.
Series [2] concerns HeLa cells. As to the kind of experiment: Confocal microscopy imaging after blue light irradiation. The format is cell-based, human. Particulars: 15 μM. How it is done:
HeLa cells were seeded onto Ibidi μ-slides at 10^4 cells/cm^2 in a complete medium and incubated for 24 h at 310 K and 5% CO2 in a humidified incubator. […] Cells were then washed with PBS twice and imaged under confocal microscopy (STELLARIS Leica Microsystems) using 405 nm excitation laser.

For series [3], the system named is HeLa cells. The series is described as follows: Photoactivation studies (phototoxicity, MTT), dark vs blue light. The format is cell-based, human. As for the experimental part:
(§1) For dark cytotoxic screening, A2780, CHO, HeLa, and A375 cells were cultured in 96-well plates at a density of 5 × 10^3 cells/well in complete medium and incubated for 24 h at 310 K and 5% CO2 in a humidified incubator. Serial dilutions of tested compounds in cell culture media were then added at final concentrations in the range of 0 to 100 μM in a final volume of 100 μL/well (%v/v DMSO below 0.4%) for 48 h prior to MTT test. For photoactivation studies, HeLa and A375 cells were used. Treatments were added at final concentrations in the range of 0 to 500 μM. After 1 h incubation with the compounds, light irradiation treatments were applied using a LED photoreactor (Luzchem; Canada) fitted with LED lamps centered at 465 nm (final intensity 4 mW/cm^2) for 1 h. Dark control analogues were directly kept in the dark for 2 h. After incubation periods, cells were washed with saline PBS buffer and loaded with 50 μL of MTT solution (1 mg/mL) for additional 4 h, then removed and 50 μL DMSO was added to solubilize the purple formazan crystals formed in active cells. The absorbance was measured at 570 nm using a microplate reader (FLUOstar Omega) and the IC50 values were calculated based on the inhibitory rate curves using the next the equation [drawing 2] where I represents the percentage inhibition of viability observed, Imax is the maximal inhibitory effect, IC50 is the concentration that inhibits 50% of maximal growth, C is the concentration of the treatment, and n is the slope of the semilogarithmic dose–response sigmoidal curves. The nonlinear fitting was performed using SigmaPlot 14.0 software. Two independent experiments were performed with triplicate points per concentration level (n = 3).

Series [4] relates to A375 cells. The description is as above. In kind it is cell-based, human. How it is done:
as §1

Series [5] relates to HeLa cells. The series is described as follows: Cell uptake by confocal microscopy. As to conditions: 15 μM, 2 h incubation; for Cellular uptake: λexc 450 nm. The format is cell-based, human. How it is done: HeLa cells were seeded onto Ibidi μ-slides at 10^4 cells/cm^2 in a complete medium and incubated for 24 h at 310 K and 5% CO2 in a humidified incubator. Compounds were added at indicated concentrations for 2 h. […]

Series [6] has as its system HeLa cells. As to the kind of experiment: Dark cytotoxic screening, MTT test, 48 h. Particulars: 48 h in the dark. In kind it is cell-based, human. How it is done:
as §1
Background: Formazan colour is commonly taken as a measure of viable cells.

The test system of another series is A2780 cells. The series is described as follows: Dark cytotoxic screening, MTT test, 48 h. In kind it is cell-based, human. Particulars: 48 h in the dark. As for the experimental part:
as §1

Series [7] relates to A375 cells. The series is described as follows: Dark cytotoxic screening, MTT test, 48 h. As to conditions: 48 h in the dark. The format is cell-based, human. How it is done:
as §1

The test system of the next series is CHO cells. As to the kind of experiment: Dark cytotoxic screening, MTT test, 48 h. As to conditions: 48 h in the dark. In kind it is cell-based. As for the experimental part: as §1
Setting [8] is: hypoxia (2% O2), 1 h incubation then blue light 465 nm, 4 mW/cm^2, 1 h, read-out: IC50 HeLa blue light.
[9] abbreviates: hypoxia (2% O2), dark, read-out: IC50 HeLa dark.
Where [10] appears, read: normoxia (21% O2), 1 h incubation then blue light 465 nm, 4 mW/cm^2, 1 h, read-out: IC50 HeLa blue light.
Setting [11] is: normoxia (21% O2), dark 2 h, read-out: IC50 HeLa dark.
[12] abbreviates: hypoxia (2% O2), 1 h incubation then blue light 465 nm, 4 mW/cm^2, 1 h, read-out: IC50 A375 blue light.
[13] abbreviates: hypoxia (2% O2), dark, read-out: IC50 A375 dark.
The mark [14] stands for this setting: normoxia (21% O2), 1 h incubation then blue light 465 nm, 4 mW/cm^2, 1 h, read-out: IC50 A375 blue light.
The mark [15] stands for this setting: normoxia (21% O2), dark 2 h, read-out: IC50 A375 dark.

Molecules are shown by their SMILES. Like-named read-outs stand apart in the source and are kept apart here.

On to `CN(C)c1ccc(-n2cc(-c3nc4ccccc4s3)nn2)cc1` [L5], for which the Intracellular distribution result in the series with HeLa cells [1] is listed as “evenly distributed around cell cytoplasm but not within nuclei”.
In general, IC50 refers to the midpoint of a concentration-inhibition curve. Turning to `CN(C)c1ccc(-n2cc(-c3nc4ccccc4s3)nn2)cc1.O=S(=O)([O-])C(F)(F)F.O=S(=O)([O-])C(F)(F)F.[Ru+2].c1cnc2c(c1)ccc1cccnc12.c1cnc2c(c1)ccc1cccnc12` [Ru5, [Ru(phen)2(L5)][OTf]2], in the series on HeLa cells [2] (1 h, then blue light 1 min), the “Cell cytotoxicity by imaging, 1 min irradiation” value is on record as “no cell cytotoxicity was observed”. In the series with HeLa cells [2] (then blue light 1 h), the “Cell cytotoxicity by imaging, 1 h irradiation” value was “discernible cell damage is evident”. The “P.I. HeLa (IC50 dark/IC50 465 nm)” value in the series with HeLa cells [3] (hypoxia (2% O2)) is above 8.7; with HeLa cells [3] (normoxia), above 12.0. Further, the IC50 in the series on HeLa cells [3] (setting [8]) was 57.2 ± 6.4 µM; in the series with HeLa cells [3] (setting [9]) it was above 500 µM; in the series on HeLa cells [3] (setting [10]), 41.8 ± 3.9 µM; with HeLa cells [3] (setting [11]) it was above 500 µM; in the series with A375 cells [4] (setting [12]) it was above 100 µM; in the series on A375 cells [4] (setting [13]), above 500 µM. Also, the IC50 with A375 cells [4] (setting [14]) is 27.1 ± 6.2 µM; in the series on A375 cells [4] (setting [15]) it was above 500 µM; with HeLa cells [6] it was above 100 µM; in the series on A2780 cells it was above 100 µM; in the series on A375 cells [7], above 100 µM; in the series on CHO cells it was above 100 µM. In the series on A375 cells [4] (normoxia), the “P.I. A375 (IC50 dark/IC50 465 nm)” value was above 18.5. Moreover, the Intracellular distribution entry with HeLa cells [5] was “across the cytoplasm in punctate deposits”. In addition, in the series with HeLa cells [5], the Cellular uptake result is “excellent and rapid cellular uptake”.
In the case of `[NH2][Pt]([NH2])([Cl])[Cl]` [CDDP, cisplatin, reference compound], the concentration for half-maximal inhibition (IC50) in the series on HeLa cells [6] is 21 ± 2 µM; with A2780 cells, 1.9 ± 0.1 µM; in the series with CHO cells, 7.8 ± 0.4 µM.
In the case of `FC(F)(F)c1ccc(-n2cc(-c3nc4ccccc4s3)nn2)cc1.O=S(=O)([O-])C(F)(F)F.O=S(=O)([O-])C(F)(F)F.[Ru+2].c1cnc2c(c1)ccc1cccnc12.c1cnc2c(c1)ccc1cccnc12` [Ru3, [Ru(phen)2(L3)][OTf]2], the “P.I. HeLa (IC50 dark/IC50 465 nm)” value is given as above 5.9 in the series with HeLa cells [3] (hypoxia (2% O2)) and above 6.8 with HeLa cells [3] (normoxia). Besides, the IC50 with HeLa cells [3] (setting [8]) was 85.2 ± 4.4 µM; in the series with HeLa cells [3] (setting [9]), above 500 µM; in the series on HeLa cells [3] (setting [10]), 73.5 ± 4.2 µM; with HeLa cells [3] (setting [11]), above 500 µM; in the series with A375 cells [4] (setting [12]) it was above 100 µM; with A375 cells [4] (setting [13]), above 500 µM. Moreover, the half-maximal inhibitory concentration (IC50) in the series on A375 cells [4] (setting [14]) was 73.5 ± 4.3 µM; in the series with A375 cells [4] (setting [15]), above 500 µM; in the series with HeLa cells [6], above 100 µM; in the series on A2780 cells, above 100 µM; in the series with A375 cells [7] it was above 100 µM; with CHO cells, above 100 µM. Moreover, in the series on A375 cells [4] (normoxia), the “P.I. A375 (IC50 dark/IC50 465 nm)” value is on record as above 6.8.
Regarding `O=S(=O)([O-])C(F)(F)F.O=S(=O)([O-])C(F)(F)F.O=[N+]([O-])c1ccc(-n2cc(-c3nc4ccccc4s3)nn2)cc1.[Ru+2].c1cnc2c(c1)ccc1cccnc12.c1cnc2c(c1)ccc1cccnc12` [Ru4, [Ru(phen)2(L4)][OTf]2], the results for the “P.I. HeLa (IC50 dark/IC50 465 nm)” value in the series on HeLa cells [3] (hypoxia (2% O2)) and in the series with HeLa cells [3] (normoxia) were above 12.0 and above 14.8, respectively. For the same molecule, the IC50 is 41.7 ± 2.7 µM in the series on HeLa cells [3] (setting [8]); above 500 µM in the series on HeLa cells [3] (setting [9]); 33.8 ± 5.5 µM with HeLa cells [3] (setting [10]); above 500 µM with HeLa cells [3] (setting [11]); 51.9 ± 2.4 µM with A375 cells [4] (setting [12]); above 500 µM with A375 cells [4] (setting [13]). Besides, the IC50 in the series on A375 cells [4] (setting [14]) is 18.8 ± 3.7 µM; in the series with A375 cells [4] (setting [15]), above 500 µM; in the series with HeLa cells [6], above 100 µM; in the series on A2780 cells it was above 100 µM; in the series on A375 cells [7], above 100 µM; in the series with CHO cells, above 100 µM. Also, the “P.I. A375 (IC50 dark/IC50 465 nm)” value in the series with A375 cells [4] (hypoxia (2% O2)) is listed as above 9.6; in the series with A375 cells [4] (normoxia), above 26.6. The Intracellular distribution entry with HeLa cells [5] is “across the cytoplasm in punctate deposits”. Further, the Cellular uptake entry in the series with HeLa cells [5] was “excellent and rapid cellular uptake”.
With `Cc1ccc(-n2cc(-c3nc4ccccc4s3)nn2)cc1.O=S(=O)([O-])C(F)(F)F.O=S(=O)([O-])C(F)(F)F.[Ru+2].c1cnc2c(c1)ccc1cccnc12.c1cnc2c(c1)ccc1cccnc12` [Ru1, [Ru(phen)2(L1)][OTf]2], the “P.I. HeLa (IC50 dark/IC50 465 nm)” value in the series with HeLa cells [3] (hypoxia (2% O2)) is recorded as above 7.1; in the series with HeLa cells [3] (normoxia), above 10.4. The IC50 in the series on HeLa cells [3] (setting [8]) was 70.2 ± 5 µM; in the series on HeLa cells [3] (setting [9]) it was above 500 µM; in the series on HeLa cells [3] (setting [10]) it was 48 ± 3.4 µM; with HeLa cells [3] (setting [11]) it was above 500 µM; with A375 cells [4] (setting [12]) it was 66.9 ± 6.1 µM; with A375 cells [4] (setting [13]), above 500 µM. Further, the IC50 was 20.6 ± 1.5 µM with A375 cells [4] (setting [14]); above 500 µM with A375 cells [4] (setting [15]); above 100 µM in the series on HeLa cells [6]; above 100 µM with A2780 cells; above 100 µM with A375 cells [7]; above 100 µM in the series with CHO cells. Further, the “P.I. A375 (IC50 dark/IC50 465 nm)” value is given as above 7.5 in the series with A375 cells [4] (hypoxia (2% O2)) and above 24.4 with A375 cells [4] (normoxia).
